From PMC7435868, “Structure-Based Virtual Screening, Synthesis and Biological Evaluation of Potential FAK-FAT Domain Inhibitors for Treatment of Metastatic Cancer” (Molecules, 2020)
Counter-ions that a name gives are not always drawn.

Experiments:
[1] = Turbidimetric aqueous solubility; assay type: physicochemical; conditions: 37 °C, 2 h; for Estimated Precipitation Range, Calculated Mid-Range / Estimated Precipitation Range, Lower Bound / Estimated Precipitation Range, Upper Bound: buffered aqueous solution (PBS pH 7.4, 1% DMSO); for Aqueous solubility (in words): turbidimetric
Description: Both the estimated precipitation range (lower and upper bound) and a mid-range value were measured. Nicardipine and pyrene were used as control compounds.
The test compound was diluted in buffer to give a range of concentrations (1, 3, 10, 30, and 100 μM; final DMSO concentration 1%) and incubated at 37 °C for 2 hr.
The test compound (10 mM in DMSO) was serially diluted to give solutions of 0.1, 0.3, 1, and 3 mM in DMSO. Each test compound concentration was then further diluted 1 to 100 in buffer (typically 0.01 M phosphate buffered saline pH 7.4) so that the final DMSO concentration was 1%, and the final test compound concentrations were 1, 3, 10, 30, and 100 μM. The experiment was performed at 37 °C and each concentration was incubated in 7 replicate wells. The plates were incubated for 2 h at 37 °C before the absorbance was measured at 620 nm. Nicardipine and pyrene were included as control compounds. The solubility of nicardipine is pH dependent whereas the solubility of pyrene is pH independent.
An estimated precipitation range (lower and upper bound) and a calculated mid-range value were returned, along with any relevant comments, in the form of an Excel spreadsheet.

T47D = assay: Cell viability assay (CellTiter Glo), T47D; assay type: cell-based, human; conditions: Homo sapiens, T47D, 72 h, 72 h incubation, mean of independent triplicate experiments, read-out: In vitro anti-proliferative activity IC50, T47D ER+ PR+/- HER-
Description: (§1) The antiproliferative activity of compound I as well as its newly synthesised analogues (5a–i) was evaluated in vitro against the three human breast cancer cell lines MDA-MB-231 (TNBC), T47D (ER^+, HER^−), and BT474 (ER^+, HER^+) as well as a human pancreatic cancer cell line MIAPaCa2. The seeding of the corresponding cell lines started one day before incubation, which lasted for 72 h with the different concentrations of the tested compounds. CellTiter Glo reagent (25 μL) was added to the cell plate. The luminescence was analysed after 10 min using a PerkinElmer Envision instrument. The test compounds were used at ten different triplicate concentrations in half log increments up to 100 μM.

MDA-MB-231 = assay: Cell viability assay (CellTiter Glo), MDA-MB-231; assay type: cell-based; conditions: Homo sapiens, 72 h incubation, mean of independent triplicate experiments, read-out: In vitro anti-proliferative activity IC50, MDA-MB-231 ER- PR- HER-
Description: as §1

[2] = Microsomal metabolic stability; conditions: for Compound Remaining (% of 0 min), 0 min / Compound Remaining (% of 0 min), 5 min / Compound Remaining (% of 0 min), 15 min / Compound Remaining (% of 0 min), 30 min / Compound Remaining (% of 0 min), 45 min / Compound Remaining (% of 0 min), Control: human liver microsomes; for Compound Remaining (% of 0 min), Control: minus NADPH control; for Compound Remaining (% of 0 min), 45 min / Compound Remaining (% of 0 min), Control: 45 min; for half-life at 3 μM / microsomal CLint at 3 μM: human, pooled liver microsomes, pH 7.4
Description: Half-life (t1/2) values were measured at five time points.
Intrinsic clearance values (CLint) with standard error and t1⁄2 values were measured.
The final incubation volume was 50 μL. A minus cofactor control incubation was included for each compound tested where 0.1 M phosphate buffer pH 7.4 was added instead of NADPH (minus NADPH). Two control compounds were included with each species. All incubations were performed singularly for each test compound.
The reactions were stopped by transferring 20 μL of incubate to 60 μL methanol at the appropriate time points. The termination plates were centrifuged at 2500 rpm for 20 min at 4 °C to precipitate the protein.
Following protein precipitation, the sample supernatants were combined in cassettes of up to 4 compounds, the internal standard was added, and samples were analysed using Cyprotex generic LC-MS/MS conditions.
From a plot of ln peak area ratio (compound peak area/internal standard peak area) against time, the gradient of the line was determined.

MIAPaCa2 = assay: Cell viability assay (CellTiter Glo), MIAPaCa2; assay type: cell-based; conditions: Homo sapiens, MIA PaCa-2, 72 h incubation, mean of independent triplicate experiments, read-out: In vitro anti-proliferative activity IC50, MIAPaCa2
Description: as §1

BT474 = assay: Cell viability assay (CellTiter Glo), BT474; assay type: cell-based, human; conditions: Homo sapiens, BT-474, 72 h, 72 h incubation, mean of independent triplicate experiments, read-out: In vitro anti-proliferative activity IC50, BT474 ER+ PR+/- HER+
Description: as §1

hERG potassium channel = hERG potassium channel (Homo sapiens, UniProt Q12809); assay: hERG channel inhibition (IonWorks automated patch clamp, CHO-hERG cells)
Chain of hERG potassium channel (Q12809 whole entry): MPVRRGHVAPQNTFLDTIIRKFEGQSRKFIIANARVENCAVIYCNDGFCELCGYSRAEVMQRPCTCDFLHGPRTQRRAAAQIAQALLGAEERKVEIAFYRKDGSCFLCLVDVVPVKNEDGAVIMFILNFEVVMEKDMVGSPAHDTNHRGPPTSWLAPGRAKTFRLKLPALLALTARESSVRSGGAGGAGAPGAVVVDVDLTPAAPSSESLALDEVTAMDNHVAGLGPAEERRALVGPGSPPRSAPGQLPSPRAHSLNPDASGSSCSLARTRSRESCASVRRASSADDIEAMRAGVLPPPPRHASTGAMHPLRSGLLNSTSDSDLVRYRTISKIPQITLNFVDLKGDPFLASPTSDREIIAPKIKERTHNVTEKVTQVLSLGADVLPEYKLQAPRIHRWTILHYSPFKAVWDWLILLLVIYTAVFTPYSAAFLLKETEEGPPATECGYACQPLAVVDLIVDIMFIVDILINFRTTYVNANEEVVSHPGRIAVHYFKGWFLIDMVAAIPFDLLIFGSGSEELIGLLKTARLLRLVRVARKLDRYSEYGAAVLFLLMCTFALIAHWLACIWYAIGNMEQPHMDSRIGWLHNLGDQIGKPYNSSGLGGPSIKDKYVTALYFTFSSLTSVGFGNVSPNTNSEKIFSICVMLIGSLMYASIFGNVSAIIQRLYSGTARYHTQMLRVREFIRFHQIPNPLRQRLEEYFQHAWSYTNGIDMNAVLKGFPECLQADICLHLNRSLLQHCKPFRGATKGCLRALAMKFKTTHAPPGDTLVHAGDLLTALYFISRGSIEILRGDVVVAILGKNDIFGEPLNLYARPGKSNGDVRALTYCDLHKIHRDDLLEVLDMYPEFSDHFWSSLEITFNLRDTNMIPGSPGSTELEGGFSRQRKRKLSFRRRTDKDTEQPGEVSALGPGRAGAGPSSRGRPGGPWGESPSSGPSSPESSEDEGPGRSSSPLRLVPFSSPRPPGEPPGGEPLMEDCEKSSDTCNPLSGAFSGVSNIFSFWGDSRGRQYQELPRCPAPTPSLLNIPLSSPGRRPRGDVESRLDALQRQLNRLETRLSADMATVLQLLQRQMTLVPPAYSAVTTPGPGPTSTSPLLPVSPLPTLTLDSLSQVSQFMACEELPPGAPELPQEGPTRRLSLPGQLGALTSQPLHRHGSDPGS
Description: Mammalian cells expressing the hERG potassium channel were dispensed into 384-well planar arrays and hERG tail-currents measured by whole-cell voltage-clamping. A range of concentrations of the test compound was then added to the cells and a second recording of the hERG current was made. […] IC50 is delivered, standard error (SE IC50), and n (number of data points used to calculate IC50) for the test compound. The experiments were performed on an Ion Works TM automated patch clamp instrument (Molecular Devices LLC (San Jose, California, United States)), which simultaneously performs electrophysiology measurements for 48 single cells in a specialised 384-well plate (PatchPlateTM(manufacturer, city, state if USA or Canada, country)). All cell suspensions, buffers, and test compound solutions were at room temperature during the experiment.
The cells used were Chinese hamster ovary (CHO) cells stably transfected with hERG (cell-line obtained from Cytomyx, UK). A single-cell suspension was prepared in extracellular solution (Dulbecco’s phosphate buffered saline with calcium and magnesium pH 7.2) and aliquots added automatically to each well of a Patch Plate TM. The cells were then positioned over a small hole at the bottom of each well by applying a vacuum beneath the plate to form an electrical seal. The vacuum was applied through a single compartment common to all wells which was filled with intracellular solution (buffered to pH 7.2 with HEPES). The resistance of each seal was measured via a common ground-electrode in the intracellular compartment and individual electrodes placed into each of the upper wells.
Electrical access to the cell was then achieved by circulating a perforating agent, amphotericin B, underneath the PatchPlateTM. The pre-compound hERG current was then measured. An electrode was positioned in the extracellular compartment and a holding potential of −80 mV applied for 15 s. The hERG channels were then activated by applying a depolarising step to +40 mV for 5 s and then clamped at −50 mV for 4 s to elicit the hERG tail current, before returning to −80 mV for 0.3 s.
The Ion Works TM instrument automatically adds test compound dilutions to the upper wells of the PatchPlateTM. The test compound was left in contact with the cells for 300 s before recording currents using the same voltage-step protocol as in the pre-compound scan.
Each concentration was tested in 4 replicate wells on the PatchPlateTM (maximum of 24 data points). Filters were applied to ensure only acceptable cells were used to assess hERG inhibition.
For each replicate, the hERG response was calculated using the following equation:% hERG response = [Post-compound current (nA)/Pre-compound current (nA)] × 100(5)

| Compound | Estimated Precipitation Range, Calculated Mid-Range [1] | Estimated Precipitation Range, Lower Bound [1] | Estimated Precipitation Range, Upper Bound [1] | Aqueous solubility (in words) [1] | IC50 (T47D) | IC50 (MDA-MB-231) | Compound Remaining (% of 0 min), 0 min [2] | Compound Remaining (% of 0 min), 5 min [2] | Compound Remaining (% of 0 min), 15 min [2] | Compound Remaining (% of 0 min), 30 min [2] | Compound Remaining (% of 0 min), 45 min [2] | Compound Remaining (% of 0 min), Control [2] | half-life at 3 μM [2] | microsomal CLint at 3 μM [2] | IC50 (MIAPaCa2) | IC50 (BT474) | IC50 (hERG potassium channel) |
| --- | --- | --- | --- | --- | --- | --- | --- | --- | --- | --- | --- | --- | --- | --- | --- | --- | --- |
| Cl.NCC(c1ccc(OC(F)(F)F)cc1)c1ccc(OC(F)(F)F)cc1 [5h, 2,2-Bis(4-trifluoromethoxyphenyl)ethan-1-aminium chloride] | 65 µM | 30 µM | 100 µM | moderate solubility | 13.2 µM | 12.8 µM | 100 % of 0 min | 102 % of 0 min | 108 % of 0 min | 100 % of 0 min | 95.8 % of 0 min | 97.8 % of 0 min | 9.82 h | 2.35 µL/min/mg | 39.9 µM | 13.2 µM |  |
| CC(C)(C)c1ccc(C(CN)c2ccc(F)cc2)cc1.Cl (centres unmarked) [5c, 2-(4-tert-butylphenyl)-2-(4-fluorophenyl)ethan-1-aminium chloride] | >100 µM | 100 µM | >100 µM | high aqueous solubility | 13.4 µM | 12.8 µM | 100 % of 0 min | 94.7 % of 0 min | 95.0 % of 0 min | 86.1 % of 0 min | 82.5 % of 0 min | 98.0 % of 0 min | 2.8 h | 8.26 µL/min/mg | 15.1 µM | 8.94 µM |  |
| CC(C)(C)c1ccc(C(CN)c2ccc(OC(F)(F)F)cc2)cc1 (centres unmarked) [5a, 2-(4-tert-butylphenyl)-2-(4-trifluoromethoxyphenyl)ethan-1-aminium hydrochloride] | 65 µM | 30 µM | 100 µM | moderate solubility | 4.94 µM | 5.63 µM | 100 % of 0 min | 95.8 % of 0 min | 92.3 % of 0 min | 86.0 % of 0 min | 81.4 % of 0 min | 91.0 % of 0 min | 2.6 h | 8.91 µL/min/mg | 5.51 µM | 5 µM | 3.59 µM |
| c1cc2ccc3cccc4ccc(c1)c2c34 [pyrene, reference compound] | 6.5 µM | 3 µM | 10 µM |  |  |  |  |  |  |  |  |  |  |  |  |  |  |
| COc1ccc(C(CN)c2ccc(OC)cc2)cc1 [5i, 2,2-Bis(4-methoxyphenyl)ethan-1-aminium chloride] |  |  |  |  | 43.9 µM | 46.2 µM |  |  |  |  |  |  |  |  | 49 µM | 44.5 µM | 6.01 µM |
| CC(C)(C)c1ccc(C(CN)c2cccc(F)c2)cc1 (centres unmarked) [5e, 2-(4-tert-butylphenyl)-2-(3-fluorophenyl)ethan-1-aminium chloride] |  |  |  |  | 14.4 µM | 14.1 µM |  |  |  |  |  |  |  |  | 17 µM | 15 µM |  |
| COC(=O)C1=C(C)NC(C)=C(C(=O)OCCN(C)Cc2ccccc2)C1c1cccc([N+](=O)[O-])c1 (centres unmarked) [nicardipine, reference compound] |  |  | 30 µM |  |  |  |  |  |  |  |  |  |  |  |  |  |  |
| Cl.NCC(c1ccc(Cl)cc1)c1ccc(OC(F)(F)F)cc1 (centres unmarked) [5g, 2-(4-chlorophenyl)-2-(4-trifluoromethoxyphenyl)ethan-1-aminium chloride] |  |  |  |  | 15.3 µM | 16.9 µM | 100 % of 0 min | 99.0 % of 0 min | 96.2 % of 0 min | 86.8 % of 0 min | 72.8 % of 0 min | 86.6 % of 0 min | 1.67 h | 13.9 µL/min/mg | 45.3 µM | 15.5 µM |  |
| CC(C)(C)c1ccc(C(CN)c2ccccc2F)cc1 (centres unmarked) [5d, 2-(4-tert-butylphenyl)-2-(2-fluorophenyl)ethan-1-aminium chloride] |  |  |  |  | 14.7 µM | 14.8 µM |  |  |  |  |  |  |  |  | 15.8 µM | 14.8 µM |  |
| CC(C)(C)c1ccc(C(CN)c2ccc(SC(F)(F)F)cc2)cc1.Cl (centres unmarked) [5b, 2-(4-tert-butylphenyl)-2-(4-(trifluoromethyl)thiophenyl)ethan-1-aminium chloride] | 11.5 µM | 3 µM | 20 µM | relatively reduced solubility comparable to pyrene | 11.4 µM | 11.8 µM |  |  |  |  |  |  |  |  | 15.7 µM | 12.5 µM |  |
